For orientation: EC50 means the concentration giving half of the maximal effect.

Structures can show the parent of a compound that is named as a salt.

This note sets out measurements from patent publication US5026724A, “Compounds with bronchodilator activity” (Akzo N.V., priority 1988, dated 1991).

For this experiment, the system named is Isolated, single ring preparations of guinea-pig trachea. Put plainly: relaxant effect after tone contracture induced by histamine in isolated guinea-pig trachea rings. The experiment is classed as cell-based. Conditions: Cavia porcellus, contracture by histamine (40 μM), flurbiprofen (1 μM) present, 37° C., cumulative concentration-effect curves. How it is done:
Compounds of formula I show strong bronchodilator activity, which for instance can be measured by the relaxant effect of the compounds after tone contracture by histamine, which is determined as follows. Isolated, single ring preparations of guinea-pig trachea were suspended in tissue baths containing KrebsHenseleit solution, at 37° C., bubbled with a gaseous mixture of 5% CO2 and 95% 02 Tissues were allowed to equilibrate for 60 min. after which flurbiprofen (1 μM), a cyclo-oxygenase inhibitor, was added to the tissue bath and a further 60 min. equilibration allowed to elapse. The flurbiprofen remained in contact with the tissue for the duration of the experiment in order to eliminate the complications that arise in guinea-pig airway preparations due to the spontaneous and agonist-induced generation of cyclo-oxygenase products (for example PGE2 and PGF2α) No other drugs (e.g. atropine or β-adrenoceptor antagonists) were present during the experimental protocol. […] Thus, tone (contracture) was induced by addition of an equi-effective (EC50) concentration of histamine (40 μM). The relaxant effects of each compound were tested by constructing cumulative concentration-effect curves. In each experiment, three preparations were contracted with histamine. After completion of the relaxant concentration-effect curves the compound under test was thoroughly washed out from the preparations which were then left to recover to control levels of resting tension (approx. 60 min.). Results of this test for the compounds of formula I are denoted in the table.
For the compound `COc1cc2sc(C=NO)cc2c(Cl)c1OC` (mixture of isomers) [Cl OCH3 H H(Z/E mixture) S none, 4-chloro-5,6-dimethoxy-benzo[b]thiophene-2-carboxaldehyde oxime], a half-maximal effect (EC50) was put at 5 µM. On to `COc1cc2sc(C(=N)NO)cc2c(Br)c1OC` [Br OCH3 H NH2 S CH3 SO3 H, 4-bromo-N-hydroxy-5,6-dimethoxy-benzo[b]thiophene-2-carboximidamide methanesulphonate], for which the EC50 was 1 µM. Next, `COc1c(OC)c(Cl)c2sc(C(=N)NO)cc2c1Cl` [Cl OCH3 Cl NH2 S HCl, 4,7-dichloro-N-hydroxy-5,6-dimethoxy-benzo[b]thiophene-2-carboximidamide hydrochloride]: 8 µM; `COc1cc2sc(C(=N)NO)cc2c(Cl)c1O` [Cl OH H NH2 S HCl, 4-chloro-5,N-dihydroxy-6-methoxy-benzo[b]thiophene-2-carboximidamide hydrochloride]: 10 µM; `COc1cc2sc(C(=N)NO)cc2c(F)c1OC` [F OCH3 H NH2 S CH3 SO3 H, 4-fluoro-N-hydroxy-5,6-dimethoxy-benzo[b]thiophene-2-carboximidamide]: 2.5 µM. The compound `COc1cc2cc(/C(C)=N/O)sc2cc1OC` [H OCH3 H CH3 (E-isomer) S none, (E)-1-(5,6-dimethoxy-benzo[b]thien-2-yl)-ethanone oxime] came in with an EC50 of 0.1 µM. Next, `COc1cc2cc(/C=N/O)sc2cc1OC` [H OCH3 H H(E-isomer) S none, (E)-5,6-dimethoxy-benzo[b]thiophene-2-carboxaldehyde oxime]: 2 µM; `COc1cc2cc(/C=N\O)sc2cc1OC` [H OCH3 H H(Z-isomer) S none, (Z)-5,6-dimethoxy-benzo[b]thiophene-2-carboxaldehyde oxime]: 5 µM.

`COc1cc2c(cc1OC)CCC(C(=N)NO)=C2` [H OCH3 H NH2 (CH2)2 HCl, 1,2-dihydro-N-hydroxy-6,7-dimethoxy-naphthalene-3-carboximidamide] showed an EC50 of 3 µM. Take `COc1cc2cc(C(=N)NO)sc2cc1OC` [H OCH3 H NH2 S none, N-hydroxy-5,6-dimethoxy-benzo[b]thiophene-2-carboximidamide]: the response was half-maximal at 8 µM (EC50). This EC50 is about 2.7-fold higher than that of the compound before. Then `COc1cc2sc(C(=N)NO)cc2cc1OC(F)F` [H OCHF2 H NH2 S HCl, 5-difluoromethyloxy-N-hydroxy-6-methoxy-benzo[b]thiophene-2-carboximidamide hydrochloride], with 5 µM; and `COc1cc(OC)c2cc(C(=N)NO)oc2c1` [OCH3 H H NH2 O HCl, N-hydroxy-4,6-dimethoxy-benzo[b]furan-2-carboximidamide], with 5 µM.
